# Data from patent publication US6737383B1, “Herbicidal oxadiazolidines” (priority 1999, dated 2004).
# Tests used:
# purple nutsedge = test: Test B pre/postemergence purple nutsedge; assay type: in vivo, Cyperus rotundus
# In short: (§1)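 Test chemicals in a non-phytotoxic solvent mixture with surfactant were sprayed preemergence onto planted seeds and postemergence onto plants 2 to 18 cm tall (1- to 4-leaf stage). After twelve to sixteen days in a greenhouse, injury was visually rated against untreated controls from 0 (no effect) to 10 (complete control).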
# rice = test: Test B flood test rice; assay type: in vivo, Oryza sativa
# In short: (§2)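 Plants were grown to the 2-leaf stage before treatment with test chemical, then held in a greenhouse for twelve to sixteen days. Injury was visually rated against untreated controls on a 0–10 scale, where 0 is no effect and 10 is complete control.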
# cocklebur = test: Test B pre/postemergence cocklebur; assay type: in vivo, Xanthium strumarium
# In short: as §1
# blackgrass = test: Test B pre/postemergence blackgrass; assay type: in vivo, Alopecurus myosuroides
# In short: as §1
# crabgrass = test: Test B pre/postemergence crabgrass; assay type: in vivo, Digitaria sanguinalis
# In short: as §1
# giant foxtail = test: Test B pre/postemergence giant foxtail; assay type: in vivo, Setaria faberii
# In short: as §1
# soybean = test: Test B pre/postemergence soybean; assay type: in vivo, Glycine max
# In short: as §1
# smallflower flatsedge = test: Test B flood test smallflower flatsedge; assay type: in vivo, Cyperus difformis
# In short: as §2
# wheat = test: Test B pre/postemergence wheat; assay type: in vivo, Triticum aestivum
# In short: as §1
# corn = test: Test B pre/postemergence corn; assay type: in vivo, Zea mays
# In short: as §1
# duck salad = test: Test B flood test duck salad; assay type: in vivo, Heteranthera limosa
# In short: as §2
# wild oat = test: Test B pre/postemergence wild oat; assay type: in vivo, Avena fatua
# In short: as §1
# velvetleaf = test: Test B pre/postemergence velvetleaf; assay type: in vivo, Abutilon theophrasti
# In short: as §1
# surinam grass = test: Test B pre/postemergence surinam grass; assay type: in vivo, Brachiaria decumbens
# In short: as §1
# bamyardgrass = test: Test B flood test barnyardgrass; assay type: in vivo, Echinochloa crus-galli
# In short: as §2
# morningglory = test: Test B pre/postemergence morningglory; assay type: in vivo, Ipomoea hederacea
# In short: as §1
# bedstraw = test: Test B pre/postemergence bedstraw; assay type: in vivo, Galium aparine
# In short: as §1
# [1] = Postemergence, Rate 62 g/ha, scale 0 to 10, 0 is no effect, 10 is complete control
# [2] = Postemergence, Rate 250 g/ha, scale 0 to 10, 0 no effect, 10 complete control
# [3] = Preemergence, Rate 62 g/ha, scale 0 to 10, 0 is no effect, 10 is complete control
# [4] = Preemergence, Rate 125 g/ha, scale 0 to 10 (0 no effect, 10 complete control)
# [5] = Preemergence, Rate 250 g/ha, scale of 0 to 10 where 0 is no effect and 10 is complete control
# [6] = Preemergence, Rate 500 g/ha, scale 0 (no effect) to 10 (complete control)
# [7] = Rate 125 g/ha, Postemergence, scale 0 to 10, 0 no effect, 10 complete control
# [8] = Rate 500 g/ha, Postemergence, 0 to 10 scale (0 no effect, 10 complete control)
# [9] = Rate 125 g/ha, Postemergence section (flood test species), scale 0 to 10, 0 no effect, 10 complete control
# [10] = Rate 500 g/ha, Postemergence section of Table B, 0 to 10 scale (0 no effect, 10 complete control)
# [11] = flood test, listed under Postemergence, Rate 250 g/ha, scale 0 to 10, 0 no effect, 10 complete control
smiles,measurement,setting,value
Cc1ccccc1-n1c(=O)on(C(=O)N(c2ccc(Cl)cc2)C(C)C)c1=O [Compound 41],Nutsedge plant response rating,purple nutsedge; [1],0
same,Nutsedge plant response rating,purple nutsedge; [2],0
same,"Plant response rating, Nutsedge",purple nutsedge; [3],0
same,"Plant response rating, Nutsedge",purple nutsedge; [4],0
same,"Plant response rating, Nutsedge",purple nutsedge; [5],0
same,Nutsedge plant response rating,purple nutsedge; [6],0
same,Nutsedge plant response rating,purple nutsedge; [7],0
same,Nutsedge plant response rating,purple nutsedge; [8],0
same,Rice plant response rating,rice; [1],0
same,Rice plant response rating,rice; [9],0
same,Rice plant response rating,rice; [10],0
same,Rice plant response rating,rice; [11],0
same,Cocklebur plant response rating,cocklebur; [1],0
same,Cocklebur plant response rating,cocklebur; [2],1
same,"Plant response rating, Cocklebur",cocklebur; [3],0
same,"Plant response rating, Cocklebur",cocklebur; [4],0
same,"Plant response rating, Cocklebur",cocklebur; [5],0
same,Cocklebur plant response rating,cocklebur; [6],0
same,Cocklebur plant response rating,cocklebur; [7],0
same,Cocklebur plant response rating,cocklebur; [8],3
same,Blackgrass plant response rating,blackgrass; [1],0
same,Blackgrass plant response rating,blackgrass; [2],3
same,"Plant response rating, Blackgrass",blackgrass; [3],0
same,"Plant response rating, Blackgrass",blackgrass; [4],0
same,"Plant response rating, Blackgrass",blackgrass; [5],2
same,Blackgrass plant response rating,blackgrass; [6],4
same,Blackgrass plant response rating,blackgrass; [7],0
same,Blackgrass plant response rating,blackgrass; [8],4
same,Crabgrass plant response rating,crabgrass; [1],0
same,Crabgrass plant response rating,crabgrass; [2],5
same,"Plant response rating, Crabgrass",crabgrass; [3],3
same,"Plant response rating, Crabgrass",crabgrass; [4],4
same,"Plant response rating, Crabgrass",crabgrass; [5],8
same,Crabgrass plant response rating,crabgrass; [6],10
same,Crabgrass plant response rating,crabgrass; [7],1
same,Crabgrass plant response rating,crabgrass; [8],7
same,Giant foxtail plant response rating,giant foxtail; [1],0
same,Giant foxtail plant response rating,giant foxtail; [2],1
same,"Plant response rating, Giant foxtail",giant foxtail; [3],4
same,"Plant response rating, Giant foxtail",giant foxtail; [4],9
same,"Plant response rating, Giant foxtail",giant foxtail; [5],10
same,Giant foxtail plant response rating,giant foxtail; [6],10
same,Giant foxtail plant response rating,giant foxtail; [7],0
same,Giant foxtail plant response rating,giant foxtail; [8],1
same,Soybean plant response rating,soybean; [1],3
same,Soybean plant response rating,soybean; [2],4
same,"Plant response rating, Soybean",soybean; [3],0
same,"Plant response rating, Soybean",soybean; [4],0
same,"Plant response rating, Soybean",soybean; [5],0
same,Soybean plant response rating,soybean; [6],0
same,Soybean plant response rating,soybean; [7],3
same,S. Flatsedge plant response rating,smallflower flatsedge; [1],0
same,S. Flatsedge plant response rating,smallflower flatsedge; [9],0
same,S. Flatsedge plant response rating,smallflower flatsedge; [11],0
same,Wheat plant response rating,wheat; [1],0
same,Wheat plant response rating,wheat; [2],0
same,"Plant response rating, Wheat",wheat; [3],0
same,"Plant response rating, Wheat",wheat; [4],0
same,"Plant response rating, Wheat",wheat; [5],0
same,Wheat plant response rating,wheat; [6],0
same,Wheat plant response rating,wheat; [7],0
same,Corn plant response rating,corn; [1],0
same,Corn plant response rating,corn; [2],0
same,"Plant response rating, Corn",corn; [3],0
same,"Plant response rating, Corn",corn; [4],0
same,"Plant response rating, Corn",corn; [5],0
same,Corn plant response rating,corn; [6],0
same,Corn plant response rating,corn; [7],0
same,Corn plant response rating,corn; [8],0
same,Ducksalad plant response rating,duck salad; [1],0
same,Ducksalad plant response rating,duck salad; [9],0
same,Ducksalad plant response rating,duck salad; [10],0
same,Ducksalad plant response rating,duck salad; [11],0
same,Wild oats plant response rating,wild oat; [1],0
same,Wild oats plant response rating,wild oat; [2],0
same,"Plant response rating, Wild oats",wild oat; [4],0
same,"Plant response rating, Wild oats",wild oat; [5],0
same,Wild oats plant response rating,wild oat; [6],4
same,Wild oats plant response rating,wild oat; [7],0
same,Velvetleaf plant response rating,velvetleaf; [1],0
same,Velvetleaf plant response rating,velvetleaf; [2],0
same,"Plant response rating, Velvetleaf",velvetleaf; [3],0
same,"Plant response rating, Velvetleaf",velvetleaf; [4],0
same,"Plant response rating, Velvetleaf",velvetleaf; [5],0
same,Velvetleaf plant response rating,velvetleaf; [6],0
same,Velvetleaf plant response rating,velvetleaf; [7],0
same,B. signalgrass plant response rating,surinam grass; [1],0
same,B. signalgrass plant response rating,surinam grass; [2],0
same,"Plant response rating, B. signalgrass",surinam grass; [3],0
same,"Plant response rating, B. signalgrass",surinam grass; [4],0
same,"Plant response rating, B. signalgrass",surinam grass; [5],4
same,B. signalgrass plant response rating,surinam grass; [6],7
same,B. signalgrass plant response rating,surinam grass; [7],0
same,B. signalgrass plant response rating,surinam grass; [8],0
same,Barnyardgrass plant response rating,bamyardgrass; [1],0
same,Barnyardgrass plant response rating,bamyardgrass; [9],0
same,Barnyardgrass plant response rating,bamyardgrass; [10],0
same,Barnyardgrass plant response rating,bamyardgrass; [11],0
same,Morningglory plant response rating,morningglory; [1],1
same,Morningglory plant response rating,morningglory; [2],2
same,"Plant response rating, Morningglory",morningglory; [3],0
same,"Plant response rating, Morningglory",morningglory; [4],0
same,"Plant response rating, Morningglory",morningglory; [5],0
same,Morningglory plant response rating,morningglory; [6],0
same,Morningglory plant response rating,morningglory; [7],2
same,Morningglory plant response rating,morningglory; [8],6
same,Bedstraw plant response rating,bedstraw; [1],0
same,"Plant response rating, Bedstraw",bedstraw; [3],0
same,"Plant response rating, Bedstraw",bedstraw; [4],0
same,"Plant response rating, Bedstraw",bedstraw; [5],0
same,Bedstraw plant response rating,bedstraw; [6],0
